# Reference: the supplement of paper PMC11061612
# Assays:
# Assay in all cases: combination Emax (second highest fraction inhibited in the dose matrix, 72 h); higher = more inhibition; extreme values may be limits of the assay
# [1] = test system: 697 (B-Lymphoblastic Leukemia)
# Procedure, shortened: (§1)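 Bliss excess equals the observed combination effect minus the expected value EA + EB − EA·EB, where EA and EB are the effects of each agent alone. Combination Emax is the second-highest inhibition within the matrix. Inhibition was scaled from CellTiter-Glo 2.0 luminescence, with 0 set by vehicle wells and 1 by blank wells, after 72 hours of two-drug dosing of cells plated in 1536-well plates.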
# [2] = test system: C3A (Hepatocellular Carcinoma)
# Procedure, shortened: as §1
# CAL-78 (Chondrosarcoma) = test system: CAL-78 (Chondrosarcoma)
# Procedure, shortened: as §1
# [3] = test system: DB (B-Cell Non-Hodgkin's Lymphoma)
# Procedure, shortened: as §1
# [4] = test system: DOV13 (Ovarian Carcinoma)
# Procedure, shortened: as §1
# DSH1 (Bladder Carcinoma) = test system: DSH1 (Bladder Carcinoma)
# Procedure, shortened: as §1
# [5] = test system: EM-2 (Chronic Myelogenous Leukemia)
# Procedure, shortened: as §1
# J82 (Bladder Carcinoma) = test system: J82 (Bladder Carcinoma)
# Procedure, shortened: as §1
# [6] = test system: JiyoyeP-2003 (Burkitt's Lymphoma)
# Procedure, shortened: as §1
# [7] = test system: KARPAS-620 (Plasma Cell Myeloma)
# Procedure, shortened: as §1
# [8] = test system: LS-513 (Colorectal Carcinoma)
# Procedure, shortened: as §1
# [9] = test system: LU-99A (Non-Small Cell Lung Carcinoma)
# Procedure, shortened: as §1
# [10] = test system: MDA-MB-231 (Breast Carcinoma)
# Procedure, shortened: as §1
# [11] = test system: MFH-ino (Other Solid Carcinomas)
# Procedure, shortened: as §1
# [12] = test system: NCI-H1299 (Non-Small Cell Lung Carcinoma)
# Procedure, shortened: as §1
# [13] = test system: NCI-H1793 (Lung Adenocarcinoma)
# Procedure, shortened: as §1
# SK-N-FI (Neuroblastoma) = test system: SK-N-FI (Neuroblastoma)
# Procedure, shortened: as §1
# SN12C (Kidney Carcinoma) = test system: SN12C (Kidney Carcinoma)
# Procedure, shortened: as §1
# [14] = test system: SUIT-2 (Pancreatic Carcinoma)
# Procedure, shortened: as §1
# [15] = test system: TE-5 (Esophageal Squamous Cell Carcinoma)
# Procedure, shortened: as §1
Structure (SMILES),combination Emax [1],combination Emax [2],combination Emax (CAL-78 (Chondrosarcoma)),combination Emax [3],combination Emax [4],combination Emax (DSH1 (Bladder Carcinoma)),combination Emax [5],combination Emax (J82 (Bladder Carcinoma)),combination Emax [6],combination Emax [7],combination Emax [8],combination Emax [9],combination Emax [10],combination Emax [11],combination Emax [12],combination Emax [13],combination Emax (SK-N-FI (Neuroblastoma)),combination Emax (SN12C (Kidney Carcinoma)),combination Emax [14],combination Emax [15]
"C=CCn1c(=O)c2cnc(Nc3ccc(N4CCN(C)CC4)cc3)nc2n1-c1cccc(C(C)(C)O)n1 [AZD1775] + O=C(c1cc(Cc2n[nH]c(=O)c3ccccc23)ccc1F)N1CCN(C(=O)C2CC2)CC1 [Olaparib] (first compound max 1 µM, partner max 10 µM)",1,0.55,0.446,0.912,0.802,0.369,0.938,0.195,0.915,0.489,0.827,0.546,0.582,0.413,0.792,0.379,0.715,0.335,0.607,0.411
"Cn1cnc2c(F)c(Nc3ccc(Br)cc3Cl)c(C(=O)NOCCO)cc21 [Selumetinib] + C[C@@H]1COCCN1C2=NC(=NC(=C2)C3(CC3)[S@](=N)(=O)C)C4=C5C=CNC5=NC=C4 [AZD6738] (first compound max 10 µM, 7x7, partner max 10 µM)",1,0.759,0.42,0.274,0.763,0.761,0.954,0.482,0.947,0.935,0.897,0.569,0.718,0.421,0.543,0.524,0.746,0.192,0.386,0.464
"NC1(C(=O)N[C@@H](CCO)c2ccc(Cl)cc2)CCN(c2ncnc3[nH]ccc23)CC1 [Capivasertib] + CC(C)n1c(=O)n(C)c2cnc3cc(F)c(-c4ccc(OCCCN5CCCCC5)nc4)cc3c21 [AZD1390] (first compound max 10 µM, 7x7, partner max 0.3 µM)",0.59,0.255,0.414,0.386,0.462,0.615,0.426,0.392,0.685,0.775,0.471,0.407,0.334,0.28,0.254,0.265,0.361,0.205,0.139,0.303
"CN(CCO)CC[C@H](CSc1ccccc1)Nc1ccc(S(=O)(=O)NC(=O)c2ccc(N3CCC([C@@H](O)c4ccccc4-c4ccc(Cl)cc4)CC3)cc2)cc1S(=O)(=O)C(F)(F)F [AZD4320] + C[C@@H](Nc1cc(F)cc(F)c1)c1cc(C(=O)N(C)C)cc2c(=O)cc(N3CCOCC3)oc12 [AZD8186] (first compound max 1 µM, 7x7, partner max 3 µM)",1,0.632,0.7,0.921,0.916,0.404,0.959,0.282,0.789,1,0.708,0.765,0.808,0.397,0.297,0.342,0.395,0.331,0.245,0.636
"Cc1c2c(nn1C)CSCc1cc(n(C)n1)CSc1cc(c3ccccc3c1)OCCCc1c(C(=O)O)n(C)c3c-2c(Cl)ccc13 [AZD5991] + C[C@@H](Nc1cc(F)cc(F)c1)c1cc(C(=O)N(C)C)cc2c(=O)cc(N3CCOCC3)oc12 [AZD8186] (first compound max 1 µM, 7x7, partner max 3 µM)",0.978,0.292,0.875,0.974,0.381,0.582,0.259,0.234,0.718,1,0.255,0.275,0.23,0.234,0.386,0.263,0.565,0.246,0.175,0.191
"CCN(CCO)CCCOc1ccc2c(Nc3cc(CC(=O)Nc4cccc(F)c4)[nH]n3)ncnc2c1 [AZD2811] + C[C@@H]1COCCN1C2=NC(=NC(=C2)C3(CC3)[S@](=N)(=O)C)C4=C5C=CNC5=NC=C4 [AZD6738] (first compound max 1 µM, 7x7, partner max 10 µM)",1,0.464,0.534,0.726,0.873,0.673,0.968,0.184,0.93,0.59,0.746,0.659,0.667,0.529,0.642,0.327,0.687,0.212,0.575,0.476
"COc1cccc(OCCCN)c1-c1cc(Nc2cnc(C#N)cn2)n[nH]1 [Prexasertib] + O=C(c1cc(Cc2n[nH]c(=O)c3ccccc23)ccc1F)N1CCN(C(=O)C2CC2)CC1 [Olaparib] (first compound max 1 µM, 7x7, partner max 10 µM)",1,0.53,0.565,0.687,0.962,0.688,1,0.462,0.986,0.802,0.781,0.765,0.639,0.45,0.694,0.532,0.889,0.387,0.682,0.521
"CS(=O)(=O)CCNCc1ccc(-c2ccc3ncnc(Nc4ccc(OCc5cccc(F)c5)c(Cl)c4)c3c2)o1 [Lapatinib] + C[C@@H](Oc1cc(-c2cnn(C3CCNCC3)c2)cnc1N)c1c(Cl)ccc(F)c1Cl [Crizotinib] (first compound max 10 µM, 7x7, partner max 10 µM)",0.996,0.951,0.897,0.953,0.886,1,1,0.662,0.863,0.873,0.966,0.603,0.828,0.25,0.492,0.793,0.601,0.216,0.657,0.502
"COc1cccc(OCCCN)c1-c1cc(Nc2cnc(C#N)cn2)n[nH]1 [Prexasertib] + CCc1c2c(nc3ccc(O)cc13)-c1cc3c(c(=O)n1C2)COC(=O)[C@]3(O)CC [SN-38] (first compound max 1 µM, 7x7, partner max 0.3 µM)",1,0.649,0.906,0.983,0.959,0.924,0.982,0.894,1,0.889,0.751,0.798,0.978,0.704,0.79,0.769,0.886,0.76,0.713,0.818
"Cn1cnc2c(F)c(Nc3ccc(Br)cc3Cl)c(C(=O)NOCCO)cc21 [Selumetinib] + C=CCn1c(=O)c2cnc(Nc3ccc(N4CCN(C)CC4)cc3)nc2n1-c1cccc(C(C)(C)O)n1 [AZD1775] (first compound max 10 µM, partner max 1 µM)",1,0.777,0.544,0.793,0.637,0.503,0.92,0.299,0.947,0.849,0.904,0.62,0.577,0.345,0.652,0.423,0.69,0.241,0.588,0.292
"Cc1cc2ncnn2cc1Nc1ncc2c(n1)n(C1CCOCC1)c(=O)n2C [AZD7648] + C=CCn1c(=O)c2cnc(Nc3ccc(N4CCN(C)CC4)cc3)nc2n1-c1cccc(C(C)(C)O)n1 [AZD1775] (first compound max 10 µM, partner max 1 µM)",1,0.521,0.458,0.786,0.839,0.463,0.964,0.244,0.929,0.597,0.776,0.563,0.434,0.39,0.72,0.416,0.591,0.313,0.656,0.515
"CC(=O)c1c(C)c2cnc(Nc3ccc(N4CCNCC4)cn3)nc2n(C2CCCC2)c1=O [Palbociclib] + CC1(C)CCC(CN2CCN(c3ccc(C(=O)NS(=O)(=O)c4ccc(NCC5CCOCC5)c([N+](=O)[O-])c4)c(Oc4cnc5[nH]ccc5c4)c3)CC2)=C(c2ccc(Cl)cc2)C1 [Venetoclax] (first compound max 10 µM, 7x7, partner max 1 µM)",1,0.447,0.278,0.962,0.752,0.439,0.287,0.237,0.614,0.842,0.648,0.319,0.408,0.219,0.326,0.197,0.213,0.0441,0.0936,0.0622
"CN(C)CCCOc1ccc(-c2ccc3ncc4c(c3c2)n(C2CCOCC2)c(=O)n4C)cn1 [AZD0156] + O=C(c1cc(Cc2n[nH]c(=O)c3ccccc23)ccc1F)N1CCN(C(=O)C2CC2)CC1 [Olaparib] (first compound max 3 µM, partner max 3 µM)",0.97,0.22,0.272,0.476,0.608,0.387,0.306,0.128,0.311,0.612,0.267,0.408,0.405,0.256,0.335,0.496,0.148,0.102,0.195,0.302
